This is an account of results in patent EP3763226A1, “COMPOSITION FOR REDUCING HAIR LOSS AND IMPROVING HAIR GROWTH IN CASES OF ANDROGENETIC ALOPECIA” (Merz Pharma GmbH & Co. KGaA, priority 2019, dated 2021).

For assay [1], the system named is ex-vivo Kultur von Haarfollikeln. The settings on record: ex vivo culture of hair follicles; cited from earlier work.
The next assay concerns the target T1, 5-α-Reduktase Typ I (Homo sapiens, UniProt P18405).
T1 construct: expressed in transfected cells; host or cells: HEK293 (HEK I), stably transfected; gift of Prof; R. W. Hartmann, Saarland University; particulate fraction of the cell homogenate used
T1 sequence (P18405 1-259): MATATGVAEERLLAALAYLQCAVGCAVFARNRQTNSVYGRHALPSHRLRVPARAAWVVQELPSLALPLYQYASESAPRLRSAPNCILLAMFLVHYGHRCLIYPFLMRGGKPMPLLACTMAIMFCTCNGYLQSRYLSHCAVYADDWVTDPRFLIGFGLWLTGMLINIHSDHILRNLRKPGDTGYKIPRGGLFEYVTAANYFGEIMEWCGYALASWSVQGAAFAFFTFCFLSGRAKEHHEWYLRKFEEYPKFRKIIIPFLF
The assay can be described thus: Cell-free in vitro 5α-reductase type I inhibition assay (HEK I cell homogenate, androstenedione conversion, LC-HRMS). Format: biochemical. The settings on record: concentration giving 50% inhibition; Abbildung 1; read-out: IC50-Wert für die 5 alpha Reduktase vom Typ I.

The target in another assay is T2, 5-α-Reduktase Typ II (Homo sapiens, UniProt P31213).
T2 sequence (P31213 1-254): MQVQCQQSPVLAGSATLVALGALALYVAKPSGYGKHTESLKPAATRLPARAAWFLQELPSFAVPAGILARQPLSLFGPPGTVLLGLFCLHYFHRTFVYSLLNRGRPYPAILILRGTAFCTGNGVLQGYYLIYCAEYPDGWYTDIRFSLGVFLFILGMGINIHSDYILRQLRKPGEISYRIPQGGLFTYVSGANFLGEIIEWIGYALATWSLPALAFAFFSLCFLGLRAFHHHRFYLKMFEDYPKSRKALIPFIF
The assay can be described thus: Cell-free in vitro 5α-reductase type II inhibition assay (HEK II cell homogenate, androstenedione conversion, LC-HRMS). The assay is classed as biochemical.

In general, IC50 refers to the concentration that inhibits the measured activity by half.

Procedure for 5-α-Reduktase Typ II: Die HEK I Zellen exprimieren rekombinante 5 alpha Reduktase vom Typ I, während die HEK II Zellen rekombinante 5 alpha Reduktase vom Typ II exprimieren.
HEK I und HEK II Zellen wurden in DMEM (Dulbecco's modified eagle medium, ccpro GmbH) (pH 7.4) mit 10 % FCS (Fetal calf serum, PAN), Penicillin/Streptomycin (100 U/ml und 100 µg/ml) und 0.5 mg/ml Geneticin-418-sulfat in einer befeuchteten 5 % CO2 Atmosphäre bei 37°C kultiviert.
Herstellung der 5-α-Reduktase Typ I und II enthaltenen Zellfraktionen: Für den Zell-freien in vitro assays wurden HEK I oder HEK II geerntet, durch Zentrifugation (500 x g) vom Zellkulturmedium befreit und re-suspended in einem Homogenisierungs-Puffer bestehend aus 50 mM Tris-HCI (pH 7.4), 300 mM Saccharose, 0.1 mM EDTA, 10 mM DTT and 100 µM PMSF. Durch Einfrieren bei - 196 °C und Auftauen auf Eis, wurden die Zellen solubilisiert. Nach einer Inkubations-Zeitraum von 30 min bei 4°C mit 1 mg/ml DNAse in 50 mM MgCl2 und zwischenzeitlich kräftigen Schütteln, wurde das erhaltene Homogenisat bei 20,200 x g in einer gekühlten Zentrifuge für 50 min bei 4°C zentrifugiert. Das Pellet wurde im Homogenisierungs-Puffer re-suspendiert und wieder bei 20,200 x g für 30 Minuten bei at 4°C zentrifugiert. Diese Prozedur wurde zweimal wiederholt. […] Der Protein-Gehalt wurde gemäß der BCA-Methode mit dem kommerziell erhältlichen BCA-Protein Assay Kit von Pierce quantifiziert. […]

Turning to `O=C(O[C@@H]1Cc2c(O)cc(O)cc2O[C@@H]1c1cc(O)c(O)c(O)c1)c1cc(O)c(O)c(O)c1` [Epigallocatechin-3-gallate], the Haarwachstum result in assay [1] is “stimuliert”.
Regarding `CC(C)(C)NC(=O)[C@H]1CC[C@H]2[C@@H]3CC[C@H]4NC(=O)C=C[C@]4(C)[C@H]3CC[C@]12C` [Finasterid], the IC50 on 5-α-Reduktase Typ I is 376 nM; on 5-α-Reduktase Typ II (concentration giving 50% inhibition, Abbildung 1, read-out: IC50-Wert für die 5 alpha Reduktase vom Typ II) it was 1.89 nM. The “Wirkung auf die 5-alpha Reduktase vom Typ II stärker als auf Typ I” value at 5-α-Reduktase Typ II (ratio of the concentrations for 50% inhibition, type I vs type II) is recorded as “ca. 200 fach”.
